Measured values as given in patent publication US12202805B2, “Process for preparing (5S)-{[2-(4-carboxyphenyl)ethyl] |2-(2-{|3-chloro-4'-(trifluoromethyl)biphenyl-4-yl]methoxy}phenyl)ethyl]aminol-5,6,7,8-tetrahydroquinoline-2-carboxylic acid and its crystalline forms for use as pharmaceutically active compound” (Bayer Aktiengesellschaft, priority 2021, dated 2025).
Where “and” joins values, the source holds several entries; their conditions need not be identical. Equal entries are not always repeated.

System: thromboxane A2 challenged PAH-minipig
Assay: Haemodynamics in the anesthetized thromboxane challenged minipig, intratracheal dry powder (PAP, BP)
Type: in vivo, Göttingen Minipigs
Conditions: for BP (absolute values) / PAP (absolute values): lactose vehicle first, test powder 1.5 mg/4 kg i.t. @90 min, each animal (n=3); for % changes vs. baseline on PAP: baseline 100.0 at 80 min, i.t. dry powder, each animal
Method: Healthy Göttingen Minipigs® Ellegaard (Ellegaard, Denmark) of both sexes and having a weight of 2-6 kg were used. The animals were sedated by i.m. administration of about 25 mg/kg ketamine and about 10 mg/kg azaperone. Anaesthesia was initiated by i.v. administration of about 2 mg/kg ketamine and about 0.3 mg/kg midazolam. Maintenance of anaesthesia was by i.v. administration of about 7.5-30 mg/kg/h ketamine and about 1-4 mg/kg/h midazolam (rate of infusion 1-4 ml/kg/h) and about 150 μg/kg/h pancuronium bromide (for example Pancuronium-Actavis). After intubation, the animals were ventilated by the ventilator at a constant respiratory volume (10-12 ml/kg, 35 breaths/min; Avea®, Viasys Healthcare, USA, or Engström Carestation, GE Healthcare, Freiburg, Germany) such that an end-tidal CO2 concentration of about 5% was achieved. Ventilation was performed with room air, enriched with about 40% oxygen (normoxia). For the measurement of the haemodynamic parameters such as pulmonary arterial pressure (PAP), blood pressure (BP) and heart rate (HR), catheters were inserted into the carotid artery to measure the blood pressure, and a Swan-Ganz® catheter was introduced in a flow-directed manner via the jugular vein into the pulmonary artery. The haemodynamic signals were recorded and evaluated by means of pressure transducers (Combitransducer, B. Braun, Melsungen, Germany)/amplifiers and Ponemah® as data acquisition software.
As reference pure Lactose vehicle was applied in the beginning of each experiment.

[1] = time 150 min, listed as ex. 6e, sesquihydrate
[2] = time 160 min, listed as ex. 6e, sesquihydrate
[3] = time 170 min, listed as ex. 6e, sesquihydrate
[4] = time 180 min, listed as ex. 6e, sesquihydrate
[5] = time 190 min, listed as ex. 6e, sesquihydrate
[6] = time 200 min, listed as ex. 6e, sesquihydrate
[7] = time 210 min, listed as ex. 6e, sesquihydrate
[8] = time 220 min, listed as ex. 6e, sesquihydrate
[9] = time 230 min, listed as ex. 6e, sesquihydrate
[10] = time 240 min, listed as ex. 6e, sesquihydrate
[11] = time 250 min, listed as ex. 6e, sesquihydrate
[12] = time 260 min, listed as ex. 6e, sesquihydrate
[13] = time 270 min, listed as ex. 6e, sesquihydrate
[14] = time 280 min, listed as ex. 6e, sesquihydrate
[15] = time 290 min, listed as ex. 6e, sesquihydrate
[16] = time 300 min, listed as ex. 6e, sesquihydrate
[17] = time 310 min, listed as ex. 6e, sesquihydrate
[18] = time not given, 1st row after 310 min, listed as ex. 6e, sesquihydrate
[19] = time not given, 2nd row after 310 min, listed as ex. 6e, sesquihydrate
[20] = time −10 min, 375 μg/kg i.t., sesquihydrate

## O.O.O.O=C(O)c1ccc(CCN(CCc2ccccc2OCc2ccc(-c3ccc(C(F)(F)F)cc3)cc2Cl)[C@H]2CCCc3nc(C(=O)O)ccc32)cc1.O=C(O)c1ccc(CCN(CCc2ccccc2OCc2ccc(-c3ccc(C(F)(F)F)cc3)cc2Cl)[C@H]2CCCc3nc(C(=O)O)ccc32)cc1 [example 6e, (5S)—{[2-(4-Carboxyphenyl)ethyl][2-(2-{[3-chloro-4′-(trifluoromethyl)biphenyl-4-yl]methoxy}phenyl)-ethyl]amino}-5,6,7,8-tetrahydroquinoline-2-carboxylic acid sesquihydrate]
Time 150 min
  BP (absolute values): 99 mmHg
[1]
  BP (absolute values): 121 mmHg and 114 mmHg
  PAP (absolute values): 30.3 mmHg and 29.0 mmHg and 26.6 mmHg
Time 160 min, sesquihydrate
  % changes vs. baseline on PAP: 71.0% and 79.5% and 65.9%
Time 160 min
  BP (absolute values): 100 mmHg
[2]
  BP (absolute values): 122 mmHg and 114 mmHg
  PAP (absolute values): 29.0 mmHg and 30.3 mmHg and 26.9 mmHg
Time 170 min, sesquihydrate
  % changes vs. baseline on PAP: 68.5% and 74.3% and 61.5%
[3]
  BP (absolute values): 101 mmHg and 121 mmHg and 115 mmHg
  PAP (absolute values): 28.0 mmHg and 28.3 mmHg and 25.1 mmHg
Time 180 min, sesquihydrate
  % changes vs. baseline on PAP: 63.2% and 80.8% and 62.0%
Time 180 min
  BP (absolute values): 99 mmHg
[4]
  BP (absolute values): 119 mmHg and 115 mmHg
  PAP (absolute values): 25.8 mmHg and 30.8 mmHg and 25.3 mmHg
Time 190 min, sesquihydrate
  % changes vs. baseline on PAP: 61.5% and 80.8% and 58.6%
Time 190 min
  BP (absolute values): 99 mmHg
[5]
  BP (absolute values): 123 mmHg and 114 mmHg
  PAP (absolute values): 30.8 mmHg and 23.9 mmHg
Time 200 min, sesquihydrate
  % changes vs. baseline on PAP: 62.3% and 80.3% and 60.2%
Time 200 min
  BP (absolute values): 98 mmHg
[6]
  BP (absolute values): 116 mmHg and 113 mmHg
  PAP (absolute values): 25.5 mmHg and 30.6 mmHg and 24.6 mmHg
Time 210 min, sesquihydrate
  % changes vs. baseline on PAP: 61.0% and 80.7% and 59.4%
Time 210 min
  BP (absolute values): 99 mmHg
[7]
  BP (absolute values): 117 mmHg and 116 mmHg
  PAP (absolute values): 25.0 mmHg and 30.8 mmHg and 24.2 mmHg
Time 220 min, sesquihydrate
  % changes vs. baseline on PAP: 59.5% and 86.3% and 57.8%
Time 220 min
  BP (absolute values): 97 mmHg
[8]
  BP (absolute values): 123 mmHg and 114 mmHg
  PAP (absolute values): 24.3 mmHg and 32.9 mmHg and 23.6 mmHg
Time 230 min, sesquihydrate
  % changes vs. baseline on PAP: 58.6% and 82.6% and 57.8%
Time 230 min
  BP (absolute values): 97 mmHg
[9]
  BP (absolute values): 119 mmHg and 114 mmHg
  PAP (absolute values): 24.0 mmHg and 31.5 mmHg and 23.6 mmHg
Time 240 min, sesquihydrate
  % changes vs. baseline on PAP: 59.3% and 81.5% and 57.6%
Time 240 min
  BP (absolute values): 97 mmHg
[10]
  BP (absolute values): 119 mmHg and 112 mmHg
  PAP (absolute values): 24.3 mmHg and 31.0 mmHg and 23.5 mmHg
Time 250 min, sesquihydrate
  % changes vs. baseline on PAP: 59.3% and 82.2% and 56.1%
Time 250 min
  BP (absolute values): 97 mmHg
[11]
  BP (absolute values): 118 mmHg and 111 mmHg
  PAP (absolute values): 24.2 mmHg and 31.3 mmHg and 22.9 mmHg
Time 260 min, sesquihydrate
  % changes vs. baseline on PAP: 58.8% and 82.7% and 57.6%
Time 260 min
  BP (absolute values): 96 mmHg
[12]
  BP (absolute values): 116 mmHg and 112 mmHg
  PAP (absolute values): 24.0 mmHg and 31.5 mmHg and 23.5 mmHg
Time 270 min, sesquihydrate
  % changes vs. baseline on PAP: 59.9% and 78.3% and 55.4%
Time 270 min
  BP (absolute values): 99 mmHg
[13]
  BP (absolute values): 115 mmHg and 109 mmHg
  PAP (absolute values): 24.5 mmHg and 29.8 mmHg and 22.6 mmHg
Time 280 min, sesquihydrate
  % changes vs. baseline on PAP: 58.4% and 78.3% and 55.9%
[14]
  BP (absolute values): 97 mmHg and 111 mmHg and 110 mmHg
  PAP (absolute values): 23.9 mmHg and 29.8 mmHg and 22.8 mmHg
Time 290 min, sesquihydrate
  % changes vs. baseline on PAP: 57.4% and 79.6% and 53.9%
[15]
  BP (absolute values): 97 mmHg and 110 mmHg and 107 mmHg
  PAP (absolute values): 23.5 mmHg and 30.3 mmHg and 22.0 mmHg
Time 300 min, sesquihydrate
  % changes vs. baseline on PAP: 60.1% and 78.7% and 54.5%
Time 300 min
  BP (absolute values): 98 mmHg
[16]
  BP (absolute values): 109 mmHg and 108 mmHg
  PAP (absolute values): 24.6 mmHg and 30.0 mmHg and 22.2 mmHg
Time 310 min, sesquihydrate
  % changes vs. baseline on PAP: 58.4% and 77.6% and 53.7%
Time 310 min
  BP (absolute values): 97 mmHg
[17]
  BP (absolute values): 109 mmHg and 105 mmHg
  PAP (absolute values): 23.9 mmHg and 29.6 mmHg and 21.9 mmHg
Time 320 min, sesquihydrate
  % changes vs. baseline on PAP: 61.8% and 76.3% and 55.1%
Time 330 min, sesquihydrate
  % changes vs. baseline on PAP: 61.3% and 74.8% and 53.0%
Time not given, 1st row after 310 min
  BP (absolute values): 94 mmHg
[18]
  BP (absolute values): 108 mmHg and 105 mmHg
  PAP (absolute values): 25.3 mmHg and 29.1 mmHg and 22.5 mmHg
Time not given, 2nd row after 310 min
  BP (absolute values): 97 mmHg
[19]
  BP (absolute values): 108 mmHg and 105 mmHg
  PAP (absolute values): 25.1 mmHg and 28.5 mmHg and 21.6 mmHg
Time −10 min, 375 μg/kg i.t.
  BP (mean): 99 mmHg
[20]
  BP (mean): 107 mmHg and 119 mmHg
  PAP(mean): 42.0 mmHg and 36.4 mmHg and 37.5 mmHg
